Literature values, collected in patent US20170080084A1, “OIL/SURFACTANT MIXTURES FOR SELF-EMULSIFICATION” (priority 2014, published 2017).

Conditions: readily available values

| Compound | HLB |
| --- | --- |
| polyoxyethylene (10) lauryl ether | 17 |
| Sorbitan monooleate | 4.3 |
| CCCCCCCCCCCCOS(=O)(=O)[O-].[Na+] [SDS] | 40 |
| polyoxyethylene cetostearyl ether | 13.5 |
| polyoxyethylene sorbitan monooleate [polysorbate 80] | 15 |
